Data from patent US12637424B2, “Pharmaceutical salt of an arylpyrrole derivative” (SENTINEL ONCOLOGY LIMITED, priority 2020, dated 2026).
Read-outs that look alike come from different tables or passages of the source. Values belong to the compound of their own block, whether it stands above or below them.

Tests used:
Capan-1 = test: Cancer cell line panel proliferation (CellTiter-Glo); format: cell-based; settings: Capan-1, Pancreas, 72 hours
Experimental: (§1) Screening against diverse cancer cell lines was performed to identify tumour types displaying sensitivity to atropisomers A-1 and A-2. A panel of 48 cancer-derived cell lines was screened in a high-throughput proliferation assay using dilutions of atropisomers A-1/A-2. Cell lines that were screened included those representing cancer of the pancreas, large intestine/colorectum, lung, brain and nerves, and lymphoma and leukaemia cell lines. Cell lines were treated with serial half-log dilutions of compound and assayed 72 hours later for proliferation using CellTiter-Glo Assay (Promega). IC50 values were calculated by fitting the dose-response data using a nonlinear regression model.

Panc 10.05 = test: as above; format: cell-based; settings: Panc 10.05, Pancreas, 72 hours
Experimental: as §1

Daudi = test: as above; format: cell-based; settings: Blood/Lymphoma, 72 hours
Experimental: as §1

NAMALWA = test: as above; format: cell-based; settings: Blood/Lymphoma, 72 hours
Experimental: as §1

HCC44 = test: as above; format: cell-based; settings: HCC44, Lung, 72 hours
Experimental: as §1

NCI-H1373 = test: as above; format: cell-based; settings: NCI-H1373, Lung, 72 hours
Experimental: as §1

DOHH-2 = test: as above; format: cell-based; settings: DOHH-2, Blood/Lymphoma, 72 hours
Experimental: as §1

MIA PaCa-2 = test: as above; format: cell-based; settings: MIA PaCa-2, Pancreas, 72 hours
Experimental: as §1

RKO = test: as above; format: cell-based; settings: Large intestine/Colorectum, 72 hours
Experimental: as §1

HBL-1 = test: as above; format: cell-based; settings: HBL-1, Blood/Lymphoma, 72 hours
Experimental: as §1

AsPC-1 = test: as above; format: cell-based; settings: AsPC-1, Pancreas, 72 hours
Experimental: as §1

SU-DHL-2 = test: as above; format: cell-based; settings: SU-DHL-2, Blood/Lymphoma, 72 hours
Experimental: as §1

Z-138 = test: as above; format: cell-based; settings: Z-138, Blood/Lymphoma, 72 hours
Experimental: as §1

HT-29 = test: as above; format: cell-based; settings: HT-29, Large intestine/Colorectum, 72 hours
Experimental: as §1

NCI-H460 = test: as above; format: cell-based; settings: NCI-H460, Lung, 72 hours
Experimental: as §1

A549 = test: as above; format: cell-based; settings: A549, Lung, 72 hours
Experimental: as §1

Toledo = test: as above; format: cell-based; settings: Blood/Lymphoma, 72 hours
Experimental: as §1

SU-DHL-6 = test: as above; format: cell-based; settings: SU-DHL-6, Blood/Lymphoma, 72 hours
Experimental: as §1

Ramos = test: as above; format: cell-based; settings: Blood/Lymphoma, 72 hours
Experimental: as §1

NCI-H1792 = test: as above; format: cell-based; settings: NCI-H1792, Lung, 72 hours
Experimental: as §1

JVM-2 = test: as above; format: cell-based; settings: JVM-2, Blood/Lymphoma, 72 hours
Experimental: as §1

MV-4-11 = test: as above; format: cell-based; settings: MV-4-11, Blood/Leukaemia, 72 hours
Experimental: as §1

Daoy = test: as above; format: cell-based; settings: Brain&Nerves, 72 hours
Experimental: as §1

SW480 = test: as above; format: cell-based; settings: SW480, Large intestine/Colorectum, 72 hours
Experimental: as §1

Raji = test: as above; format: cell-based; settings: Blood/Lymphoma, 72 hours
Experimental: as §1

SW620 = test: as above; format: cell-based; settings: SW620, Large intestine/Colorectum, 72 hours
Experimental: as §1

NCI-H1975 = test: as above; format: cell-based; settings: NCI-H1975, Lung, 72 hours
Experimental: as §1

BxPC-3 = test: as above; format: cell-based; settings: BxPC-3, Pancreas, 72 hours
Experimental: as §1

T98G = test: as above; format: cell-based; settings: Brain&Nerves, 72 hours
Experimental: as §1

[1] = Chiral stability (interconversion) of isolated atropisomers in ethanol; format: physicochemical; settings: for % ee of sample @ 40° C. / % ee sample @ 80° C.: ethanol; for interconversion / racemization of atropisomers: heating for 10 days at 40° C. and 80° C.
Experimental: To assess the interconversion of atropisomer A-1 and atropisomer A-2, chiral stability was monitored at 40° C. and 80° C. […] 1. 2×1 mg of pure atropisomer was dissolved in 1 mL of ethanol in a sealed-dram vial. • 2. One set of vials was heated at 40° C. and another set at 80° C. • 3. At specified time-points a 20 μL aliquot from each stock solution (1 mL) was taken and quenched into a HPLC vial containing a 80 μL solution of hexane:ethanol; 80:20 to afford a final concentration of […] and the sample was analysed by chiral HPLC • 4. Analysis was carried out at the following time-points: 0 h, 24 h, 48 h, 72 h, 96 h and 240 h for the samples kept at 40° C. and 24 h, 96 h and 240 h for the samples kept at 80° C. using chiral HPLC method 5

[2] = test system: U87MG Human Glioblastoma Cancer Cell; test: U87MG cell viability (SRB assay); format: cell-based; settings: 72 hours, read-out: IC50 for inhibition of cell growth
Experimental: The following protocol was used to measure the effects of atropisomers A-1 and A-2 on U87MG cell viability. U87MG cells were grown in their recommended growth media/supplements (ATCC). Cells were seeded at a concentration of 5000 cells per well into 96 well plates overnight at 37° C., 5% CO2. Cells were treated with relevant concentrations of test compound for 72 hours. After 72 h incubation, viability was established using sulforhodamine B (SRB) colorimetric assay. Percentage viability was calculated against the mean of the DMSO treated control samples, and IC50 values for inhibition of cell growth were calculated using GraphPad Prism software by nonlinear regression (4 parameter logistic equation).

IC50 (Capan-1; Homo sapiens): 1.23 µM
IC50 (Panc 10.05; Homo sapiens, Panc1005): 1.14 µM
IC50 (Daudi; Homo sapiens): 0.39 µM
IC50 (NAMALWA): 0.25 µM
IC50 (HCC44; Homo sapiens): 0.48 µM
IC50 (NCI-H1373; Homo sapiens): 3.21 µM
IC50 (DOHH-2; Homo sapiens): 0.23 µM
IC50 (MIA PaCa-2; Homo sapiens): 0.33 µM
IC50 (RKO; Homo sapiens): 0.16 µM
IC50 (HBL-1; HBL1): 0.66 µM
IC50 (AsPC-1; Homo sapiens, ASPC1): 2.9 µM
IC50 (SU-DHL-2; Homo sapiens): 0.2 µM
IC50 (Z-138; Homo sapiens): 0.21 µM
IC50 (HT-29; Homo sapiens): 0.45 µM
IC50 (NCI-H460; Homo sapiens): 0.3 µM
IC50 (A549; Homo sapiens): 0.3 µM
IC50 (Toledo; Homo sapiens): 0.88 µM
IC50 (SU-DHL-6; Homo sapiens): 0.26 µM
IC50 (Ramos; Homo sapiens): 0.34 µM
IC50 (NCI-H1792; Homo sapiens): 0.25 µM
IC50 (JVM-2; Homo sapiens): 0.38 µM
IC50 (MV-4-11; Homo sapiens, MV4-11): 0.28 µM
IC50 (Daoy; Homo sapiens): 0.18 µM
IC50 (SW480; Homo sapiens): 0.87 µM
IC50 (Raji; Homo sapiens): 0.36 µM
IC50 (SW620; Homo sapiens, SW-620): 0.19 µM
IC50 (NCI-H1975; Homo sapiens): 0.63 µM
IC50 (BxPC-3; Homo sapiens): 0.3 µM
IC50 (T98G; Homo sapiens): 0.28 µM
% ee of sample @ 40° C. ([1]; 0 h): 97.20 % ee
% ee of sample @ 40° C. ([1]; 24 h): 97.34 % ee
% ee of sample @ 40° C. ([1]; 48 h): 97.30 % ee
% ee of sample @ 40° C. ([1]; 72 h): 97.24 % ee
% ee of sample @ 40° C. ([1]; 96 h): 97.14 % ee
% ee of sample @ 40° C. ([1]; 10 days): 97.46 % ee
% ee sample @ 80° C. ([1]; 0 h): 97.20 % ee
% ee sample @ 80° C. ([1]; 24 h): 95.62 % ee
% ee sample @ 80° C. ([1]; 96 h): 96.62 % ee
% ee sample @ 80° C. ([1]; 10 days): 97.12 % ee
interconversion / racemization of atropisomers [1]: no interconversion was observed
IC50 ([2]; Homo sapiens, U-87 MG): 0.22 µM
SMILES: CN(C)CCNC(=O)c1ccc(-c2ccc(-c3ccc(Cl)cc3)n2-c2ccccc2C(F)(F)F)cc1 (single isomer, unassigned) [Atropisomer A-2]

IC50 (Capan-1): > 10 µM
IC50 (Panc 10.05): 9 µM
IC50 (Daudi): 7.17 µM
IC50 (NAMALWA): 7.05 µM
IC50 (HCC44): 8.26 µM
IC50 (NCI-H1373): > 10 µM
IC50 (DOHH-2): 5.64 µM
IC50 (MIA PaCa-2): 9.17 µM
IC50 (RKO): 6.17 µM
IC50 (HBL-1): 9.94 µM
IC50 (AsPC-1): > 10 µM
IC50 (SU-DHL-2): 7.01 µM
IC50 (Z-138): 7.04 µM
IC50 (HT-29): 4.53 µM
IC50 (NCI-H460): 8.13 µM
IC50 (A549): 9.19 µM
IC50 (Toledo): > 10 µM
IC50 (SU-DHL-6): 3.98 µM
IC50 (Ramos): 3.99 µM
IC50 (NCI-H1792): 7.73 µM
IC50 (JVM-2): 4.71 µM
IC50 (MV-4-11): 6.49 µM
IC50 (Daoy): 7 µM
IC50 (SW480): 7.55 µM
IC50 (Raji): 3.91 µM
IC50 (SW620): 8.35 µM
IC50 (NCI-H1975): 5.14 µM
IC50 (BxPC-3): 6.97 µM
IC50 (T98G): 5.26 µM
% ee of sample @ 40° C. ([1]; 0 h): 100 % ee
% ee of sample @ 40° C. ([1]; 24 h): 100 % ee
% ee of sample @ 40° C. ([1]; 48 h): 100 % ee
% ee of sample @ 40° C. ([1]; 72 h): 100 % ee
% ee of sample @ 40° C. ([1]; 96 h): 100 % ee
% ee of sample @ 40° C. ([1]; 10 days): 100 % ee
% ee sample @ 80° C. ([1]; 0 h): 100 % ee
% ee sample @ 80° C. ([1]; 24 h): 100 % ee
% ee sample @ 80° C. ([1]; 96 h): 100 % ee
% ee sample @ 80° C. ([1]; 10 days): 100 % ee
interconversion / racemization of atropisomers [1]: no interconversion was observed
IC50 [2]: 4.6 µM
SMILES: CN(C)CCNC(=O)c1ccc(-c2ccc(-c3ccc(Cl)cc3)n2-c2ccccc2C(F)(F)F)cc1 (single isomer, unassigned; atropisomer a) [Atropisomer A-1]
